These results are taken from PMC7100484 (Pharmaceutical Research, 2020).

Data set [1] has as its system Mengo virus. The note with it: mouse, in vivo; cited from earlier work.
The subject of data set [2] is Semliki Forest. The note with it: mouse, in vivo; cited from earlier work.
Data set [3] relates to West Nile virus. The note with it: 10 mg/kg; cited from earlier work.
Data set [4] deals with Encephalomyocarditis virus (EMCV). The note with it: mouse, in vivo; cited from earlier work.
Data set [5] relates to cytokines and chemokines. The note with it: mouse, in vivo; cited from earlier work.
In data set [6] the test system is EMCV. The following applies: cited from earlier work.
The subject of data set [7] is fibroblasts. The note with it: cited from earlier work.
Data set [8] has as its system Influenza A/Jap/305. The note with it: mouse, in vivo; cited from earlier work.
The target of data set [9] is Human Viral RNA Sensor RIG-I (Homo sapiens, UniProt O95786). Nature of the data set: biochemical. It counts as binding.
Data set [10] deals with MCF7 Cells. Nature of the data set: cells. It counts as cell-based. The note with it: Homo sapiens, MCF7, read-out: IC50, inhibition of total fluorescent intensity/cell of Lysotracker Red.
Data set [11] has as its system macrophages. The following applies: macrophages from naive BALB/c mice; cited from earlier work.
In data set [12] the test system is Herpes simplex virus 1. The note with it: 250 mg/kg oral doses for 7 days; cited from earlier work.
For data set [13], the system named is Influenza B. The following applies: mouse, in vivo; cited from earlier work.
The conditions of data set [14]: not told; cited from earlier work.
The subject of data set [15] is respiratory tract infections. The following applies: in vivo; cited from earlier work.
For data set [16] the following is noted: microsomes; cited from earlier work.
The test system of data set [17] is ZIKV. Nature of the data set: microbe, parasite or virus in culture. It counts as cell-based. The note with it: Zika virus.
Data set [18] has as its system interferon. The following applies: in vivo, po; cited from earlier work.
For data set [19], the system named is mitochondrial potential. The note with it: cited from earlier work.

Each structure is given as a SMILES string. pEC50, pIC50: −log10 of the molar value.

Sequence of Human Viral RNA Sensor RIG-I (O95786 whole entry): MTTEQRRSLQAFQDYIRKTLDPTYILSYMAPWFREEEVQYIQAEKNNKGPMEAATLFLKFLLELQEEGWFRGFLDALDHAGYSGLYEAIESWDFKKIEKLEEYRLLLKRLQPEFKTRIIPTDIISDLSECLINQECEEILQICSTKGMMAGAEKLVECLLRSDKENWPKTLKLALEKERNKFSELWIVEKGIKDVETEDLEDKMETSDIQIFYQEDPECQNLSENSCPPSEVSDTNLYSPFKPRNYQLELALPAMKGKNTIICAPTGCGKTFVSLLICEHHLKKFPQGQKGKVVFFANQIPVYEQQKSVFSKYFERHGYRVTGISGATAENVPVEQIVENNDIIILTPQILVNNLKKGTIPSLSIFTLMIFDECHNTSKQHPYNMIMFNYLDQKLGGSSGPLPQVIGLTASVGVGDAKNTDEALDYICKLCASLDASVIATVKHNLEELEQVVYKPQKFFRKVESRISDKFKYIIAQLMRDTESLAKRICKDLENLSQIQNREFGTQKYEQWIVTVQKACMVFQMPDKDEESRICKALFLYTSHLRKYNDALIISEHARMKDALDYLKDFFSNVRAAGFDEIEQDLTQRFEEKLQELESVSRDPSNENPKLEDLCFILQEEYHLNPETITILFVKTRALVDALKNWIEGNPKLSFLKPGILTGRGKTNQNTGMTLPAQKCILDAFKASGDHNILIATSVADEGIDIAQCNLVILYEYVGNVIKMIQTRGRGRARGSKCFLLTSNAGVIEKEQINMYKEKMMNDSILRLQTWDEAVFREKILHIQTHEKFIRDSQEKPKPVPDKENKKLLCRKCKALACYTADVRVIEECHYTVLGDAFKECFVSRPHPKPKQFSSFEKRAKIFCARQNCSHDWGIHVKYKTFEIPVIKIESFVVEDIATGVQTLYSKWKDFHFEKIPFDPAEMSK

Turning to `CCN(CC)CCOc1ccc2c(c1)C(=O)c1cc(OCCN(CC)CC)ccc1-2` [Tilorone, 2,7-Bis[2-(diethylamino)ethoxy]-9H-fluoren-9-one], the survival in mice in data set [1] is listed as 80% survival in mice at 250 mg/kg single oral dose; in data set [2] it was 100% survival in mice at 250 mg/kg single oral dose; in data set [4], 80% survival in mice at 250 mg/kg single oral dose; in [8], 30% survival in mice at 250 mg/kg single oral dose; in data set [12] it was 45% survival in mice at 250 mg/kg oral doses for 7 days; in [13] it was 50% survival in mice at 250 mg/kg single oral dose. The lethality protection in data set [3] was 46% lethality protection at 10 mg/kg. Moreover, in [5], the “levels of IL-6, IL-10, IL-12 (p40), IL-12 (p70), IL-17, Eotaxin, MCP-1, MIP-1B and RANTES” value is on record as “significantly higher levels”. Moreover, in data set [6], the “drop of virus titer” value was 1 log drop of virus titer at 25 mg/ml in vitro. In data set [7], the ATP-dependent acidification entry is given as “inhibited the ATP-dependent acidification”. Besides, the “lysosomal pH” value in data set [7] is “increase lysosomal pH”. Also, in data set [7], the “secretion of precursor forms of lysosomal enzymes” value is “enhanced the secretion of precursor forms of lysosomal enzymes”. The “storage of sulfated glycosaminoglycans” value in data set [7] is listed as “induce the storage of sulfated glycosaminoglycans”. Also, the values for the pEC50 in [9] and in [17] were 3.30 and 5.28, respectively. Besides, the pIC50 in data set [10] is ~5.40. Besides, the “in vivo secretion of IL-6, TNF-a and IL-12” value in data set [11] is reported as “increase in vivo secretion”. Also, the “permeability (in words)” value in data set [14] was “highly permeable”. Also, the prophylactic efficacy in data set [15] was 72%. The “species-liver microsome stability relationship” value in [16] is on record as “increased in the order of guinea pig, non-human primate, mouse, followed by human”. Also, the interferon induction result in data set [18] was “inducer of interferon”. In data set [19], the mitochondrial potential result is “rapid increase”.
